Columns and labels:
[1] = test system: EpiDerm™ 201 synthetic skin (keratinocytes), interleukin-1 alpha release
Excerpt: The synthetic skin, EpiDerm™ 201 (MatTek Corporation, Ashland, Mass.) contains keratinocytes that release interleukin-1 alpha (IL-1 alpha) when subjected to proteases in the fecal extract. When the IL-1 alpha was released, it diffused from the skin into the fluid below the EpiDerm™. Samples of this fluid were taken and analyzed for the presence of the IL-1 alpha. Higher levels of IL-1 alpha was indicative of greater skin irritation.
Prior to application onto the EpiDerm™, the fecal extract (10.4 μL) was pre-incubated for 30 minutes at room temperature with 250 mM zinc sulfate heptahydrate in water (2.6 μL). Water only and fecal extract only samples served as controls. After application of the samples to the EpiDerm™, 25 μL aliquots were removed from the underlying media at 8, 12, and 24 hours to test for the presence of the IL-1 alpha. The aliquots were directly added to a 1.5 mL micro-centrifuge tube containing 225 μL of filtered-sterilized 20 mM Tris-HCl, pH 8.0, 1% BSA buffer and stored at −80° C. After all samples were collected, IL-1 alpha levels were quantified using the R&D Systems Interleukin-1 alpha Quantikine Kit (R&D Systems, Minneapolis, Minn.).

[2] = test system: proteolytic activity of fecal extract; settings: 0-1 mM emulsions, pH 8.0, room temperature
Method: The supernatant was filtered through 0.22 micron cellulose acetate filters and stored at −80° C. until use.

[3] = test system: proteolytic activity of infant urine; settings: 0-50 mM, pH 8.0, 37° C.
Method: The proteolytic activity of infant urine was measured using fluorescently-labeled casein.
Two (2) infant urine (100 μL) samples were added to wells of a 96 white plate (Dynex) containing 80 μL of 12.5 μg/ml solution of a fluorescent dye-labeled casein substrate (EnzChek Protease Assay Kit (E-6639)) in 100 mM Tris-HCl, pH 8.0, and allowed to incubate for 60 minutes at 37° C. […] Reaction of the infant urine with the casein substrate cleaves the fluorescent dye from the substrate. RFUs were collected using the Fluoroskan Ascent System with excitation and emission filters of 485 and 538 nm, respectively. Data were collected each minute for 60 minutes at 37° C. and rates (RFU/min) from 30-50 minutes were calculated for each zinc concentration. Using the uninhibited wells as 100% protease activity, percent of urine proteolytic activity remaining was determined for each concentration of zinc inhibitor (Inhibited Rate/Uninhibited rate* 100).

[4] = test system: proteolytic activity in the fecal extract; assay: Fecal extract protease assay with labeled casein (silk proteins); type: biochemical, infant; settings: serial dilutions in 100 mM Tris-HCl pH 8.0, room temperature
Method: Water soluble silk protein (SERICIN, Pentapharm AG, Basel, Switzerland) and hydrolyzed silk (CROSILK 10,000, Croda, Incorporated, Parsippany, N.J.) were individually shown to inhibit proteolytic activity in the fecal extract that has been implicated to contribute to diaper rash. Serial dilutions of the neat protein and hydrolysate were performed with 100 mM Tris-HCl pH 8.0 as the diluent. The silk protein concentrations were determined using a Macro BCA Protein Assay Reagent Kit (Pierce, Rockford, Ill.).
Fecal extract was prepared as described above for the examples of silk protein and zinc compositions. […] The reaction was initiated with the addition of 100 μL of the 2 μg/ml fecal extract. […] The reaction was run for 30 min. at room temperature and rates (RFU/min) from 10-20 minutes were calculated.

Compound	inhibition of fecal extract activity on EpiDerm, concentration series (FIG. 12) ([1]; 0, 25, 50, 125 and 250 mM in 2.6 μL aliquot added to 10.4 μL fecal extract)	interleukin-1 alpha released into underlying media (FIG. 11) ([1]; 250 mM pre-incubated 30 min with fecal extract, relative to FE+water, 8, 12 and 24 hours)	inhibition of casein hydrolysis by fecal extract (FIG. 9) [2]	inhibition of casein hydrolysis by infant urine (FIG. 10) [3]	fecal proteolytic activity (FIG. 13) [4]
O.O.O.O.O.O.O.O=S(=O)([O-])[O-].[Zn+2] [zinc sulfate heptahydrate]	effectively inhibits the proteolytic activity of fecal extract in a dose-dependent manner	reduced the amount of interleukin-1 alpha released into the underlying media	effectively inhibited the hydrolysis of casein by the fecal extract in a dose-dependent manner	effectively inhibited the hydrolysis of casein by infant urine in a dose-dependent manner	–
SERICIN	–	–	–	–	reduction of proteolytic activity with increasing concentrations
